Laboratory results as given in the supplement of paper PMC10307832.

Tests used:
Assay in all cases: relative viability (nuclei count vs DMSO), 5 days (fraction); higher = more cells survive
Everolimus + Vorinostat = compound: CO[C@H]1C[C@@H]2CC[C@@H](C)[C@@](O)(O2)C(=O)C(=O)N2CCCC[C@H]2C(=O)O[C@H]([C@H](C)C[C@@H]2CC[C@@H](OCCO)[C@H](OC)C2)CC(=O)[C@H](C)/C=C(\C)[C@@H](O)[C@@H](OC)C(=O)[C@H](C)C[C@H](C)/C=C/C=C/C=C/1C [Everolimus] + O=C(CCCCCCC(=O)Nc1ccccc1)NO [Vorinostat] (partner 1 µM)
Method in brief: (§1)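 Each reported value is a median over duplicate plates. It expresses relative viability: treated-well nuclei count divided by vehicle-well nuclei count. Lung cancer cell lines in 1536-well plates were dosed by pin tool a day after seeding, alone with one drug or with a fixed anchor-drug dose plus five library-drug doses (not always all listed) in √10 steps, and nuclei were counted after 5 days.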

Everolimus + Pemetrexed = compound: CO[C@H]1C[C@@H]2CC[C@@H](C)[C@@](O)(O2)C(=O)C(=O)N2CCCC[C@H]2C(=O)O[C@H]([C@H](C)C[C@@H]2CC[C@@H](OCCO)[C@H](OC)C2)CC(=O)[C@H](C)/C=C(\C)[C@@H](O)[C@@H](OC)C(=O)[C@H](C)C[C@H](C)/C=C/C=C/C=C/1C [Everolimus] + Nc1nc2[nH]cc(CCc3ccc(C(=O)N[C@@H](CCC(=O)O)C(=O)O)cc3)c2c(=O)[nH]1 [Pemetrexed] (partner 0.2 µM)
Method in brief: as §1

Everolimus + Dasatinib = compound: CO[C@H]1C[C@@H]2CC[C@@H](C)[C@@](O)(O2)C(=O)C(=O)N2CCCC[C@H]2C(=O)O[C@H]([C@H](C)C[C@@H]2CC[C@@H](OCCO)[C@H](OC)C2)CC(=O)[C@H](C)/C=C(\C)[C@@H](O)[C@@H](OC)C(=O)[C@H](C)C[C@H](C)/C=C/C=C/C=C/1C [Everolimus] + Cc1nc(Nc2ncc(C(=O)Nc3c(C)cccc3Cl)s2)cc(N2CCN(CCO)CC2)n1 [Dasatinib] (partner 0.075 µM)
Method in brief: as §1

Everolimus + Palbociclib = compound: CO[C@H]1C[C@@H]2CC[C@@H](C)[C@@](O)(O2)C(=O)C(=O)N2CCCC[C@H]2C(=O)O[C@H]([C@H](C)C[C@@H]2CC[C@@H](OCCO)[C@H](OC)C2)CC(=O)[C@H](C)/C=C(\C)[C@@H](O)[C@@H](OC)C(=O)[C@H](C)C[C@H](C)/C=C/C=C/C=C/1C [Everolimus] + CC(=O)c1c(C)c2cnc(Nc3ccc(N4CCNCC4)cn3)nc2n(C2CCCC2)c1=O [Palbociclib] (partner 0.5 µM)
Method in brief: as §1

Cell Line	relative viability (Everolimus + Vorinostat; first compound 0.01 µM)	relative viability (Everolimus + Vorinostat; first compound 0.03162 µM)	relative viability (Everolimus + Vorinostat; first compound 0.1 µM)	relative viability (Everolimus + Vorinostat; first compound 0.3162 µM)	relative viability (Everolimus + Vorinostat; first compound 1 µM)	relative viability (Everolimus + Pemetrexed; first compound 0.01 µM)	relative viability (Everolimus + Pemetrexed; first compound 0.03162 µM)	relative viability (Everolimus + Pemetrexed; first compound 0.1 µM)	relative viability (Everolimus + Pemetrexed; first compound 0.3162 µM)	relative viability (Everolimus + Pemetrexed; first compound 1 µM)	relative viability (Everolimus + Dasatinib; first compound 0.01 µM)	relative viability (Everolimus + Dasatinib; first compound 0.03162 µM)	relative viability (Everolimus + Dasatinib; first compound 0.1 µM)	relative viability (Everolimus + Dasatinib; first compound 0.3162 µM)	relative viability (Everolimus + Dasatinib; first compound 1 µM)	relative viability (Everolimus + Palbociclib; first compound 0.01 µM)	relative viability (Everolimus + Palbociclib; first compound 0.03162 µM)	relative viability (Everolimus + Palbociclib; first compound 0.1 µM)	relative viability (Everolimus + Palbociclib; first compound 0.3162 µM)	relative viability (Everolimus + Palbociclib; first compound 1 µM)
NCI-H1975	0.599	0.587	0.608	0.565	0.542	0.37	0.343	0.353	0.345	0.339	0.305	0.264	0.222	0.298	0.183	0.481	0.398	0.524	0.454	0.358
NCI-H1993	0.429	0.488	0.438	0.377	0.508	0.516	0.457	0.482	0.508	0.547	0.434	0.449	0.341	0.409	0.452	0.495	0.436	0.489	0.493	0.408
NCI-H2009	0.563	0.611	0.54	0.54	0.503	0.986	0.98	0.927	0.848	0.771	0.214	0.218	0.225	0.244	0.215	0.105	0.109	0.103	0.127	0.108
NCI-H2023	0.496	0.441	0.341	0.372	0.379	0.18	0.174	0.201	0.19	0.142	0.343	0.301	0.243	0.239	0.222	0.176	0.139	0.151	0.129	0.129
NCI-H2085	0.636	0.582	0.497	0.576	0.541	0.655	0.652	0.493	0.624	0.63	0.237	0.232	0.254	0.215	0.234	0.413	0.362	0.347	0.335	0.284
NCI-H2087	0.321	0.5	0.443	0.46	0.532	0.587	0.636	0.612	0.608	0.626	0.748	0.648	0.695	0.786	0.667	0.235	0.195	0.163	0.217	0.245
NCI-H2126	0.546	0.482	0.407	0.553	0.497	0.531	0.522	0.497	0.561	0.535	0.422	0.423	0.35	0.467	0.373	0.384	0.314	0.325	0.338	0.345
